Reference: patent US6699894B1, “Methods for treatment of inflammatory bowel disease” (OSI Pharmaceuticals, Inc., priority 2001, dated 2004)
Counter-ions that a name gives are not always drawn. Like-named read-outs stand apart in the source and are kept apart here. Blank lines part the entries; values can stand above or below the compound they belong to.

How the values were obtained:
[1] = target: T1, GST-cGB-PDE5 fusion protein (Homo sapiens, UniProt O76074); assay: cGMP binding assay with GST-cGB-PDE5 fusion protein; conditions: for competition with cGMP binding at high concentration: test substance 100 μM vs cGMP 2 μM
T1 construct: made in house; host or cells: E. coli BL21 (DE3)
Description: 5′-3′, Inc. kits for total RNA followed by oligo (dT) column purification of mRNA are used with HT-29 cells. […] It is then cloned into pGEX-5X-3 glutathione-S-transferase (GST) fusion vector (Pharmacia Biotech) with tac promoter, and EcoRI and XhoI cut sites. The fusion vector is then transfected into E. Coli BL21 (DE3) bacteria (Invitrogen). The transfected BL21 bacteria is grown to log phase, and then IPTG is added as an inducer. The induction is carried at 20° C. for 24 hrs. The bacteria are harvested and lysed. The soluble cell lysate is incubated with GSH conjugated Sepharose 4B (GSH-Sepharose 4B). The GST-cGB-PDE5 fusion protein can bind to the GSH-Sepharose beads, and the other proteins are washed off from beads with excessive cold PBS.
Then, the mixture is transferred to Brandel MB-24 cell harvester with GF/B as the filter membrane followed by 2 washes with 10 mL of cold 5 mM potassium buffer(pH 6.8). The membranes are then cut out and transferred to scintillation vials followed by the addition of 1 mL of H2O and 6 mL of Ready Safe™ liquid scintillation cocktail to each vial. The vials are counted on a Beckman LS 6500 scintillation counter.
The quenching by filter membrane or other debris are also calibrated.

patients = assay: Single, escalating dose human clinical safety trial; assay type: in vivo; conditions: oral, 50 mg BID, 100 mg BID, 200 mg BID and 400 mg BID
dogs with IBD = assay: Efficacy trial in dogs with IBD; assay type: in vivo
Excerpt: IBD in humans is quite similar to IBD in dogs. […] In fact, the IBD treatments used in dogs are very similar to those used in humans, and the success rates are similarly disappointing. The number of dogs with IBD is estimated to be in the millions in the U.S. Feline IBD is also quite common.
The pre-drug history and results achieved with the drug in each dog are as follows: […]

dogs [2] = assay: 91-day oral study in dogs; assay type: in vivo
PDE4 = assay: PDE inhibition: PDE4; assay type: biochemical; conditions: similar protocols
PDE1 = assay: PDE inhibition: PDE1; assay type: biochemical; conditions: similar protocols
dogs [3] = assay: Acute and seven-dose toxicity in dogs (capsules); conditions: dog, in vivo
Description: Therefore, these dogs were subsequently administered seven consecutive doses of 1000 mg/kg/day.

rats [4] = assay: Seven-day dose-range finding study in rats; assay type: in vivo; conditions: 7 days
rats [5] = assay: 28-day study in rats; assay type: in vivo
Description: A 28-day study in rats was also carried out at 0, 50, 500 and 2000 mg/kg/day.

PDE 5 = PDE 5 (Homo sapiens, UniProt O76074); assay: Competitive binding (with cGMP) to PDE5
rats [6] = assay: Acute toxicity study in rats; conditions: rat, in vivo
rats [7] = assay: 91-day long-term safety assessment study in rats; assay type: in vivo
Excerpt: These changes were not associated with any gross clinical abnormality.

native bovine PDE5 = native bovine PDE5 (Bos taurus, UniProt Q28156); conditions: read-out: Kd of cGMP binding to native bovine PDE5; cited from earlier work
[8] = 91 days, highest dose group (300 mg/kg/day)
[9] = 28 days, 50, 500 and 2000 mg/kg/day

competition with cGMP in binding of GST-cGB-PDE5 ([1]; 3H-cGMP 2 μM, 22° C., 1 hour): did not compete
Structure (SMILES): CCCCOC1C2OP(=O)(O)OCC2OC1n1cnc2c(N)ncnc21 (stereo not shown) [2′-O-butyl-cAMP]

competition with cGMP in binding of GST-cGB-PDE5 ([1]; 3H-cGMP 2 μM, 22° C., 1 hour): did not compete
Structure (SMILES): CCCCOC1C2OP(=O)(O)OCC2OC1n1cnc2c(=O)[nH]c(N)nc21 (stereo not shown) [2′-O-butyl-cGMP]

Structure (SMILES): Nc1ncnc2c1ncn2[C@@H]1O[C@@H]2COP(=O)(O)O[C@H]2[C@H]1O [Cyclic AMP]
competition with cGMP in binding of GST-cGB-PDE5 [1]: did not compete

competition with cGMP binding at high concentration [1]: can partially compete
Structure (SMILES): O=c1[nH]cnc2c1ncn2[C@@H]1O[C@@H]2COP(=O)(O)O[C@H]2[C@H]1O [Cyclic IMP]

competition with cGMP binding at high concentration [1]: can partially compete
Structure (SMILES): Nc1nc2c(nc(Br)n2[C@@H]2O[C@@H]3COP(=O)(O)O[C@H]3[C@H]2O)c(=O)[nH]1 [Example 8-bromo-cGMP, 8-bromo-cGMP]

Structure (SMILES): CC1=C(CC(=O)NCc2ccccc2)c2cc(F)ccc2/C1=C\c1ccncc1 [Example 38, (Z)-5-Fluoro-2-Methyl-(4-Pyridylidene)-3-(N-Benzyl)Indenylacetamide Hydrochloride]
side effects (patients): no significant side effects at any dose
body weight regained, Dog #1 (dogs with IBD; Dog #1, 12 weeks of 800 mg BID): at least 13 lbs.
histopathological change, Dog #1 (dogs with IBD; Dog #1, 12 weeks of 800 mg BID): significant histopathological improvement
body weight, Dog #1 (dogs with IBD; Dog #1, Month 8 (start), after 12 weeks of treatment, 46 lbs at Month 3 (middle)): 60 lbs
small intestine histopathology after treatment, Dog #1 (dogs with IBD; Dog #1, after 12 weeks of treatment, FIGS. 2 and 4): closely mimics normal canine small intestinal tissue
blood protein levels, Dog #2 (dogs with IBD; Dog #2, after 7 weeks 400 mg BID): returned to normal
blood protein levels, Dog #3 (dogs with IBD; Dog #3, 400 mg BID): gradually returned to within normal limits
stool, Dog #4 (dogs with IBD; Dog #4, after 7 weeks 800 mg BID, owner report): normal size stool with no mucus
outcome, Dog #6 (dogs with IBD; after 7 weeks 800 mg BID, late stage abdominal neoplastic disease discovered post-mortem): Euthanized
clinical status, Dog #5 (dogs with IBD; chronic IBD, 7 weeks 800 mg BID without conventional IBD treatments): significantly improved and completely normal
clinical status, Dog #4 (dogs with IBD; chronic IBD, conventional therapy withdrawn, 7 weeks 800 mg BID): completely clinically normal with no signs of IBD
stools, Dog #7 (dogs with IBD; chronic IBD, tylosin stopped, after one week on drug, then withdrawn by owner): normal stools began to be formed
clinical status, Dog #2 (dogs with IBD; moderate IBD (plasmacytic enteritis), two weeks conventional therapy, then 7 weeks 400 mg BID alone): Clinically normal
clinical status, Dog #3 (dogs with IBD; protein-losing enteropathy with IBD, 7 weeks 400 mg BID with intermittent metronidazole, no prednisone): clinically normal
clinical status in first 30 days, Dog #6 (dogs with IBD; severe IBD, conventional treatment withdrawn, 800 mg BID, first 30 days, owner report): playful, active and clinically normal
clinical status, Dog #1 (dogs with IBD; severe lymphoplasmacytic enteritis, 6 weeks conventional therapy plus 800 mg BID, then 6 weeks 800 mg BID alone): became clinically normal
tolerability (dogs [2]; 91 days): well tolerated
feces observation (dogs [2]; 91 days, 150 and 300 mg/kg/day): Orange discoloration of the feces
microscopic alterations of liver (dogs [2]; 91 days, highest dose group): no microscopic alterations
body weights (dogs [2]; [8]): Slightly lowered body weights
liver weights (dogs [2]; [8]): increased liver weights
toxicological effects overall (dogs [2]; oral, 91 consecutive days, 50, 150 and 300 mg/kg/day): no toxicological effects
route of elimination (suggested by feces colour) (dogs [2]; oral, 91 days): most of Compound 38 was being eliminated via the feces
IC50 (PDE4): 6000 nM
IC50 (PDE1): 3000 nM
signs of toxicity (dogs [3]; 1000 mg/kg): no signs of toxicity
signs of drug-related effects (dogs [3]; 1000 mg/kg/day): At no time in either dosing phase were any obvious signs of drug-related effects observed
signs of toxicity (rats [4]; 50 mg/kg/day): no observable signs of toxicity
treatment-related effects (rats [4]; 500 mg/kg/day): increase in absolute and relative liver weights in female rats
treatment-related effects (rats [4]; 2000 mg/kg/day): labored breathing and/or abnormal respiratory sounds, decreased weights gains and food consumption in male rats, and increased liver weights in female rats
hematology, blood chemistry, microscopic pathology (rats [4]; any dose level (50, 500, 2000 mg/kg/day)): No hematological or blood chemistry changes nor any microscopic pathology changes
macroscopic tissue changes at necropsy (rats [5]; 28 days): No macroscopic tissue changes
liver weights (rats [5]; 28 days, 2000 mg/kg/day): statistically significant increase
thyroid weights (rats [5]; 28 days, 2000 mg/kg/day): statistically significant increases
body weight changes, ophthalmoscopic examinations, hematological and blood chemistry values and urinalysis (rats [5]; [9]): unremarkable
clinical observations (rats [5]; [9]): no abnormal clinical observations
liver and thyroid weights at the lower doses (rats [5]; 28 days, 50 and 500 mg/kg/day): not statistically significant
histopathological evaluation of tissues (rats [5]; 28 days, generally limited to a small number of animals at 2000 mg/kg/day, one female at 500 mg/kg/day): traces of follicular cell hypertrophy, increased numbers of mitotic figures (suggestive of possible cell proliferation) in the thyroid gland and mild centrilobular hypertrophy in the liver
binding to the cGMP binding sites of GST-cGB-PDE5 / PDE5 [1]: does not bind to the cGMP-binding site of PDE5
competitive (with cGMP) binding to PDE 5 (PDE 5): does competitively (with cGMP) bind to PDE 5
acute toxicity on a single-dose basis (rats [6]): not acutely toxic
body weight gain (rats [6]; ip, 1000 mg/kg): reduced body weight gain
necropsy finding (rats [6]; ip, 1000 mg/kg): mesenteric adhesions seen in some animals
body weight gains (rats [6]; po, 2000 mg/kg): slightly reduced
clinical biochemistry and hematology (rats [7]; 91 days): no changes in clinical biochemistry and hematology were evident
microscopic finding, follicular cells (rats [7]; 91 days, 500 mg/kg/day): follicular cell hypertrophy
microscopic finding, kidneys (rats [7]; 91 days, 200 and 500 mg/kg/day): increase in accumulation of hyalin droplets in the kidneys
microscopic finding, liver (rats [7]; 91 days, 200 and 500 mg/kg/day): slight hepatocellular hypertrophy
liver and thyroid/parathyroid weights (rats [7]; 91 days, males and females at 200 and 500 mg/kg/day): dose-related trend to increased liver and thyroid/parathyroid weights
toxicological effects overall (rats [7]; oral, 91 consecutive days, 50, 200 and 500 mg/kg/day): did not produce any major toxicological effects

Structure (SMILES): O=C([O-])C1CCN(c2nc(NCc3ccc4c(c3)OCO4)c3cc(Cl)ccc3n2)CC1.[Na+] [Example E4021]
competition with cGMP in binding of GST-cGB-PDE5 ([1]; 3H-cGMP 2 μM, 22° C., 1 hour): None of the PDE5 inhibitors showed any competition with cGMP

Structure (SMILES): CSc1ccc(/C=C2/C(C)=C(CC(=O)O)c3cc(F)ccc32)cc1 [Sulindac sulfide, sulindac sulfide]
competition with cGMP in binding of GST-cGB-PDE5 ([1]; 3H-cGMP 2 μM, 22° C., 1 hour): None of the PDE5 inhibitors showed any competition with cGMP

competition with cGMP in binding of GST-cGB-PDE5 ([1]; 3H-cGMP 2 μM, 22° C., 1 hour): did not compete
Structure (SMILES): Nc1ccn([C@@H]2O[C@@H]3COP(=O)(O)O[C@H]3[C@H]2O)c(=O)n1 [cCMP]

Structure (SMILES): Nc1nc2c(ncn2[C@@H]2O[C@@H]3COP(=O)(O)O[C@H]3[C@H]2O)c(=O)[nH]1 [cGMP, cyclic 3′,5′-guanosine monophosphate]
binding to the cGMP binding sites of GST-cGB-PDE5 / PDE5 [1]: specifically bound
Kd ([1]; read-out: Kd of cGMP binding to GST-cGB-PDE5, two cGMP binding sites): 1600 ± 200 nM
Kd (native bovine PDE5): 1300 nM

competition with cGMP in binding of GST-cGB-PDE5 ([1]; 3H-cGMP 2 μM, 22° C., 1 hour): did not compete
Structure (SMILES): O=c1ccn([C@@H]2O[C@@H]3COP(=O)(O)O[C@H]3[C@H]2O)c(=O)[nH]1 [cUMP]

Structure (SMILES): CC1=C(CC(=O)O)c2cc(F)ccc2/C1=C\c1ccc(S(C)(=O)=O)cc1 [exisulind]
competition with cGMP in binding of GST-cGB-PDE5 ([1]; 3H-cGMP 2 μM, 22° C., 1 hour): None of the PDE5 inhibitors showed any competition with cGMP

Structure (SMILES): CCCOc1ccccc1-c1nc2nn[nH]c2c(=O)[nH]1 [zaprinast]
competition with cGMP in binding of GST-cGB-PDE5 ([1]; 3H-cGMP 2 μM, 22° C., 1 hour): None of the PDE5 inhibitors showed any competition with cGMP
